Data on 27 compounds can be found in US11168074B2, “Potassium channel inhibitors” (ACESION PHARMA ApS, priority 2017, dated 2021).

SMILES strings stand for the structures. Some results are limits rather than exact numbers.

This assay has as its target T1, human SK3 channel (hKCa2.3) (Homo sapiens, UniProt Q9UGI6).
T1 construct: expressed in transfected cells
The assay is described as follows: Automated patch clamping (QPatch 16 HT whole cell patch-clamp). In kind it is cell-based. Particulars: HEK-293 cells stably expressing hKCa2.3; free calcium 400 nM; effects normalized to N-methyl bicuculline; read-out: IC50 in the Automated patch clamping assay (concentration needed to inhibit half of the SK channel activity). Here is the method:
Automated whole cell patch-clamp recordings were performed using a QPatch 16 HT system and single-hole Qplates (Biolin Scientific, Sophion, Denmark) on HEK-293 cells stably expressing the human SK3 channel (hKCa2.3). Cells were cultured and prepared for experiments using normal cell culturing procedures. A total of 4-5 million cells were used per experiment. The Qpatch automatically generates giga sealing, whole-cell formation, compound application and recording of current. hKCa2.3 currents were recorded in symmetrical K^+ solutions, with an intracellular solution consisting of in mM: KCl 108; KOH/EGTA (ethylene glycol-bis(2-aminoethylether)-N,N,N′,N′-tetraacetic acid) 31.25/10; CaCl2 8.1; MgCl2 1.2; HEPES (2-[4-(2-hydroxyethyl)piperazin-1-yl]ethanesulfonic acid) 10; KOH 15, pH adjusted to pH=7.2 with HCl. The free calcium concentration was calculated to 400 nM. The extracellular solution consisted of in mM: KCl 150; CaCl2 0.1; MgCl2 3; HEPES 10; Glucose 10, pH=7.4 with KOH. The cells were held at 0 mV and hKCa2.3 currents were elicited by a linear voltage ramp from −80 mV to +80 mV (200 ms in duration) applied every 5th second. The compound application protocol consisted of 12 recording periods lasting from 50-200 s: 1) Baseline recordings in extracellular solution; 2) Application of the positive control N-methyl bicuculline (100 μM), which is characterized by full efficacy, fast on- and off-rate; 3-4) Wash-out; 5-9) Increasing concentrations of test compound to establish an IC50 value; 10-11) Wash-out; 12) positive control with compound NS8593 (N-[(1R)-1,2,3,4-tetrahydro-1-naphthalenyl]-1H-benzimidazol-2-amine) (1 μM). Data were sampled at 10 kHz, 4th order Bessel filter, cut-off frequency 3 kHz. Currents were compensated for run-down. Potency was quantified as the concentration needed to inhibit half of the SK channel activity and reported as an IC50 value. All effects of compounds of the present invention as tested were normalized to the observed inhibitory effect of N-methyl bicuculline.
(Patch clamp records ionic current or voltage across a cell membrane.)
Regarding `O=C(NCCC(Nc1nc2c(CO)cccc2[nH]1)c1cccc(C(F)(F)F)c1)c1ccon1` (stereo not drawn) [Example 15, N-(3-{[4-(hydroxymethyl)-1H-1,3-benzodiazol-2-yl]amino}-3-[3-(trifluoromethyl)phenyl]propyl)-1,2-oxazole-3-carboxamide], the IC50 was less than 10 µM.

Turning to `CC(=O)NCCCC(Nc1nc2cc(F)ccc2[nH]1)c1cccc(C(F)(F)F)c1` (stereo not drawn) [Example 20, N-{4-[(5-fluoro-1H-1,3-benzodiazol-2-yl)amino]-4-[3-(trifluoromethyl)phenyl]butyl}acetamide], the IC50 was less than 10 µM.

Consider `CC(=O)NCCC(Nc1nc2ccccc2[nH]1)c1cccc(OC(F)(F)F)c1` (stereo not drawn) [Example 22, N-{3-[(1H-1,3-benzodiazol-2-yl)amino]-3-[3-(trifluoromethoxy)phenyl]propyl}acetamide], for which the IC50 was less than 10 µM.

As to `CCC(=O)NCC(Nc1nc2ccccc2[nH]1)c1cccc(C(F)(F)F)c1` (single isomer, unassigned) [Example 10a, N-{2-[(1H-1,3-benzodiazol-2-yl)amino]-2-[3-(trifluoromethyl)phenyl]ethyl}propanamide], the IC50 was less than 10 µM.

Take `O=C(NCC(Nc1nc2ccccc2[nH]1)c1cccc(C(F)(F)F)c1)C1CC1` (stereo not drawn) [Example 3, N-{2-[(1H-1,3-benzodiazol-2-yl)amino]-2-[3-(trifluoromethyl)phenyl]ethyl}cyclopropanecarboxamide]: the IC50 is less than 10 µM.

`CC(=O)NCCCC(Nc1nc2ccccc2[nH]1)c1cccc(C(F)(F)F)c1` (stereo not drawn) [Example 19, N-{4-[(1H-1,3-benzodiazol-2-yl)amino]-4-[3-(trifluoromethyl)phenyl]butyl}acetamide]: the IC50 is less than 10 µM.

`CC(=O)NCCC(Nc1nc2ccccc2[nH]1)c1cccc(C(F)(F)F)c1` (stereo not drawn) [Example 14, N-{3-[(1H-1,3-benzodiazol-2-yl)amino]-3-[3-(trifluoromethyl)phenyl]propyl}acetamide]: the IC50 was less than 10 µM.

As for `O=C(NCC(Nc1nc2ccccc2[nH]1)c1cccc(C(F)(F)F)c1)c1ccncn1` (stereo not drawn) [Example 5, N-{2-[(1H-1,3-benzodiazol-2-yl)amino]-2-[3-(trifluoromethyl)phenyl]ethyl}pyrimidine-4-carboxamide; trifluoroacetic acid], the IC50 was less than 10 µM.

Regarding `O=C1CCCN1CC(Nc1nc2ccccc2[nH]1)c1cccc(C(F)(F)F)c1` (stereo not drawn) [Example 11, 1-{2-[(1H-1,3-benzodiazol-2-yl)amino]-2-[3-(trifluoromethyl)phenyl]ethyl}pyrrolidin-2-one], the IC50 was less than 10 µM.

Consider `O=C(NCC(Nc1nc2ccccc2[nH]1)c1cccc(C(F)(F)F)c1)c1ccccn1` (stereo not drawn) [Example 6, N-{2-[(1H-1,3-benzodiazol-2-yl)amino]-2-[3-(trifluoromethyl)phenyl]ethyl}pyridine-2-carboxamide; trifluoroacetic acid], for which the IC50 was less than 10 µM.

For the compound `O=C(NCC(Nc1nc2ccccc2[nH]1)c1cccc(C(F)(F)F)c1)c1cccc(F)c1` (stereo not drawn) [Example 9, N-{2-[(1H-1,3-benzodiazol-2-yl)amino]-2-[3-(trifluoromethyl)phenyl]ethyl}-3-fluorobenzamide], the IC50 was less than 10 µM.

As for `CC(=O)NCCC(Nc1nc2ccccc2[nH]1)c1cccc(C(F)(F)F)c1` (single isomer, unassigned; (-)) [Example 14a, (−)-N-{3-[(1H-1,3-benzodiazol-2-yl)amino]-3-[3-(trifluoromethyl)phenyl]propyl}acetamide], the IC50 is less than 10 µM.

Turning to `O=C(NCC(Nc1nc2ccccc2[nH]1)c1cccc(C(F)(F)F)c1)c1ccon1` (stereo not drawn) [Example 1, N-{2-[(1H-1,3-benzodiazol-2-yl)amino]-2-[3-(trifluoromethyl)phenyl]ethyl}-1,2-oxazole-3-carboxamide], the IC50 is less than 10 µM.

Turning to `CC(=O)NCCC(Nc1nc2ccccc2[nH]1)c1cccc(OC(F)(F)F)c1` (single isomer, unassigned; (-)) [Example 22a, (−)-N-{3-[(1H-1,3-benzodiazol-2-yl)amino]-3-[3-(trifluoromethoxy)phenyl]propyl}acetamide], the IC50 was less than 10 µM.

In the case of `CC(=O)NCCC(C)(Nc1nc2ccccc2[nH]1)c1cccc(C(F)(F)F)c1` (stereo not drawn) [Example 21, N-{3-[(1H-1,3-benzodiazol-2-yl)amino]-3-[3-(trifluoromethyl)phenyl]butyl}acetamide], the IC50 is less than 10 µM.

Take `CC(=O)NC(C)CC(Nc1nc2ccccc2[nH]1)c1cccc(C(F)(F)F)c1` (stereo not drawn) [Example 17, N-{4-[(1H-1,3-benzodiazol-2-yl)amino]-4-[3-(trifluoromethyl)phenyl]butan-2-yl}acetamide; trifluoroacetic acid]: the IC50 was less than 10 µM.

Regarding `CC(=O)N(C)CCC(Nc1nc2ccccc2[nH]1)c1cccc(C(F)(F)F)c1` (single isomer, unassigned; (-)) [Example 18a, (−)-N-{3-[(1H-1,3-benzodiazol-2-yl)amino]-3-[3-(trifluoromethyl)phenyl]propyl}-N-methylacetamide], the IC50 is less than 10 µM.

Regarding `CCC(=O)NCC(Nc1nc2ccccc2[nH]1)c1cccc(C(F)(F)F)c1` (stereo not drawn) [Example 10, N-{2-[(1H-1,3-benzodiazol-2-yl)amino]-2-[3-(trifluoromethyl)phenyl]ethyl}propanamide], the IC50 was less than 10 µM.

For the compound `COCC(=O)NC[C@H](Nc1nc2ccccc2[nH]1)c1cccc(C(F)(F)F)c1` [Example 12, N-[(2R)-2-[(1H-1,3-benzodiazol-2-yl)amino]-2-[3-(trifluoromethyl)phenyl]ethyl]-2-methoxyacetamide], the IC50 is less than 10 µM.

For `O=C(NCC(Nc1nc2ccccc2[nH]1)c1cccc(C(F)(F)F)c1)c1ncon1` (stereo not drawn) [Example 4, N-{2-[(1H-1,3-benzodiazol-2-yl)amino]-2-[3-(trifluoromethyl)phenyl]ethyl}-1,2,4-oxadiazole-3-carboxamide; trifluoroacetic acid], the IC50 is less than 10 µM.

Turning to `CC(=O)NCCCC(Nc1nc2ccccc2[nH]1)c1cccc(C(F)(F)F)c1` (single isomer, unassigned; (-)) [Example 19a, (−)-N-{4-[(1H-1,3-benzodiazol-2-yl)amino]-4-[3-(trifluoromethyl)phenyl]butyl}acetamide], the IC50 is less than 10 µM.

Regarding `N#Cc1cccc(C(=O)NCC(Nc2nc3ccccc3[nH]2)c2cccc(C(F)(F)F)c2)c1` (stereo not drawn) [Example 7, N-{2-[(1H-1,3-benzodiazol-2-yl)amino]-2-[3-(trifluoromethyl)phenyl]ethyl}-3-cyanobenzamide], the IC50 is less than 10 µM.

Turning to `CC(=O)N(C)CCC(Nc1nc2ccccc2[nH]1)c1cccc(C(F)(F)F)c1` (stereo not drawn) [Example 18, N-{3-[(1H-1,3-benzodiazol-2-yl)amino]-3-[3-(trifluoromethyl)phenyl]propyl}-N-methylacetamide], the IC50 was less than 10 µM.

As to `O=C(NCCC(Nc1nc2ccccc2[nH]1)c1cccc(C(F)(F)F)c1)C(F)(F)F` (stereo not drawn) [Example 16, N-{3-[(1H-1,3-benzodiazol-2-yl)amino]-3-[3-(trifluoromethyl)phenyl]propyl}-2,2,2-trifluoroacetamide; formic acid], the IC50 is less than 10 µM.

Turning to `O=C(CO)NC[C@H](Nc1nc2ccccc2[nH]1)c1cccc(C(F)(F)F)c1` [Example 13, N-[(2R)-2-[(1H-1,3-benzodiazol-2-yl)amino]-2-[3-(trifluoromethyl)phenyl]ethyl]-2-hydroxyacetamide], the IC50 was less than 10 µM.

`O=C(NCC(Nc1nc2ccccc2[nH]1)c1cccc(C(F)(F)F)c1)C1CCOCC1` (stereo not drawn) [Example 8, N-{2-[(1H-1,3-benzodiazol-2-yl)amino]-2-[3-(trifluoromethyl)phenyl]ethyl}oxane-4-carboxamide]: the IC50 is less than 10 µM.

Regarding `O=C(NCC(Nc1nc2ccccc2[nH]1)c1cccc(C(F)(F)F)c1)C1CCC1` (stereo not drawn) [Example 2, N-{2-[(1H-1,3-benzodiazol-2-yl)amino]-2-[3-(trifluoromethyl)phenyl]ethyl}cyclobutanecarboxamide], the IC50 is less than 10 µM.
